This passage reports T/C results from PubChem BioAssay AID256 (DTP/NCI, 2004).

For this experiment, the system named is CD2F1 mice, L1210 leukemia ip, survival T/C. As to the kind of experiment: NCI In Vivo Anticancer Drug Screen. Data for tumor model L1210 Leukemia (intraperitoneal) in CD2F1 (CDF1) mice. The following applies: higher = longer survival. The method, then: The antitumor activity of compounds was measured in mice bearing transplantable tumors. Survival or tumor size were measured and the results are expressed as the measurement made in the treated group (T) divided by the measurement made in the vehicle treated control group (C). The tumor model used in this assay is L1210 Leukemia (intraperitoneal) in CD2F1 (CDF1) mice

Where “and” joins values, the source holds several entries; their conditions need not be identical. Equal values may be shown once. Toxic doses and inconclusive results are not listed.

In the case of `CC(=O)c1ccccc1C(C)C`, the T/C is 91 % of control (endpoint: mean survival time, dose: 25.0 mg/kg/injection, schedule: Q01DX009 (ip), vehicle: saline with Tween-80); 96 % of control (endpoint: mean survival time, dose: 50.0 mg/kg/injection, schedule: Q01DX009 (ip), vehicle: saline with Tween-80); 94 % of control (endpoint: mean survival time, dose: 100.0 mg/kg/injection, schedule: Q01DX009 (ip), vehicle: saline with Tween-80).
On to `CCN(CC)C(=O)Nc1ccccc1Cl`, for which the T/C was 105 % of control (endpoint: mean survival time, dose: 100.0 mg/kg/injection, schedule: Q04DX002 (ip), vehicle: saline with Tween-80); 108 % of control (endpoint: mean survival time, dose: 200.0 mg/kg/injection, schedule: Q04DX002 (ip), vehicle: saline with Tween-80); 94 % of control (endpoint: mean survival time, dose: 400.0 mg/kg/injection, schedule: Q04DX002 (ip), vehicle: saline with Tween-80).
On to `O=C1NC2(CCCCC2)C(=O)N1CCN(CCCl)CCCl`, for which the T/C reads like this: (endpoint: median survival time, dose: 0.5 mg/kg/injection, schedule: Q03HX024 (ip), vehicle: Klucel (hydroxypropylcellulose) (HPC)) 98 % of control; (endpoint: median survival time, dose: 1.0 mg/kg/injection, schedule: Q01DX009 (ip), vehicle: Klucel (hydroxypropylcellulose) (HPC)) 101 % of control; (endpoint: median survival time, dose: 1.0 mg/kg/injection, schedule: Q01DX009 (sc), vehicle: Klucel (hydroxypropylcellulose) (HPC)) 98 % of control; (endpoint: median survival time, dose: 1.0 mg/kg/injection, schedule: Q03HX016 (ip), vehicle: Klucel (hydroxypropylcellulose) (HPC)) 96 % of control; (endpoint: median survival time, dose: 1.0 mg/kg/injection, schedule: Q03HX024 (ip), vehicle: Klucel (hydroxypropylcellulose) (HPC)) 98 % of control; (endpoint: median survival time, dose: 2.0 mg/kg/injection, schedule: Q01DX009 (ip), vehicle: Klucel (hydroxypropylcellulose) (HPC)) 101 % of control. Further, the T/C is 101 % of control (endpoint: median survival time, dose: 2.0 mg/kg/injection, schedule: Q01DX009 (sc), vehicle: Klucel (hydroxypropylcellulose) (HPC)); 110 % of control (endpoint: median survival time, dose: 2.0 mg/kg/injection, schedule: Q03HX008 (ip), vehicle: Klucel (hydroxypropylcellulose) (HPC)); 104 % of control (endpoint: median survival time, dose: 2.0 mg/kg/injection, schedule: Q03HX016 (ip), vehicle: Klucel (hydroxypropylcellulose) (HPC)); 106 % of control (endpoint: median survival time, dose: 2.0 mg/kg/injection, schedule: Q03HX024 (ip), vehicle: Klucel (hydroxypropylcellulose) (HPC)); 107 % of control (endpoint: median survival time, dose: 4.0 mg/kg/injection, schedule: Q01DX009 (ip), vehicle: Klucel (hydroxypropylcellulose) (HPC)); 123 % of control (endpoint: median survival time, dose: 4.0 mg/kg/injection, schedule: Q01DX009 (oral), vehicle: Klucel (hydroxypropylcellulose) (HPC)). Moreover, the T/C is, setting by setting: (endpoint: median survival time, dose: 4.0 mg/kg/injection, schedule: Q01DX009 (sc), vehicle: Klucel (hydroxypropylcellulose) (HPC)) 103 % of control; (endpoint: median survival time, dose: 4.0 mg/kg/injection, schedule: Q03HX008 (ip), vehicle: Klucel (hydroxypropylcellulose) (HPC)) 106 % of control; (endpoint: median survival time, dose: 4.0 mg/kg/injection, schedule: Q03HX016 (ip), vehicle: Klucel (hydroxypropylcellulose) (HPC)) 103 % of control; (endpoint: median survival time, dose: 4.0 mg/kg/injection, schedule: Q03HX024 (ip), vehicle: Klucel (hydroxypropylcellulose) (HPC)) 109 % of control; (endpoint: median survival time, dose: 4.0 mg/kg/injection, schedule: Q04DX003 (ip), vehicle: Klucel (hydroxypropylcellulose) (HPC)) 100 % of control; (endpoint: median survival time, dose: 6.0 mg/kg/injection, schedule: Q01DX009 (ip), vehicle: Klucel (hydroxypropylcellulose) (HPC)) 153 % of control. For the same molecule, the T/C is 106 % of control (endpoint: median survival time, dose: 8.0 mg/kg/injection, schedule: Q01DX009 (ip), vehicle: Klucel (hydroxypropylcellulose) (HPC)); 115 % of control (endpoint: median survival time, dose: 8.0 mg/kg/injection, schedule: Q01DX009 (oral), vehicle: Klucel (hydroxypropylcellulose) (HPC)); 114 % of control (endpoint: median survival time, dose: 8.0 mg/kg/injection, schedule: Q01DX009 (sc), vehicle: Klucel (hydroxypropylcellulose) (HPC)); 115 % of control (endpoint: median survival time, dose: 8.0 mg/kg/injection, schedule: Q03HX008 (ip), vehicle: Klucel (hydroxypropylcellulose) (HPC)); 111 % of control (endpoint: median survival time, dose: 8.0 mg/kg/injection, schedule: Q03HX016 (ip), vehicle: Klucel (hydroxypropylcellulose) (HPC)); 122 % of control (endpoint: median survival time, dose: 8.0 mg/kg/injection, schedule: Q03HX024 (ip), vehicle: Klucel (hydroxypropylcellulose) (HPC)). For the same molecule, the T/C runs as follows: (endpoint: median survival time, dose: 8.0 mg/kg/injection, schedule: Q04DX003 (ip), vehicle: Klucel (hydroxypropylcellulose) (HPC)) 103 % of control; (endpoint: median survival time, dose: 8.0 mg/kg/injection, schedule: Q08DX002 (ip), vehicle: Klucel (hydroxypropylcellulose) (HPC)) 106 % of control; (endpoint: median survival time, dose: 9.0 mg/kg/injection, schedule: Q01DX009 (ip), vehicle: Klucel (hydroxypropylcellulose) (HPC)) 157 % of control and 164 % of control; (endpoint: median survival time, dose: 13.0 mg/kg/injection, schedule: Q01DX009 (ip), vehicle: Klucel (hydroxypropylcellulose) (HPC)) 164 % of control and 176 % of control; (endpoint: median survival time, dose: 16.0 mg/kg/injection, schedule: Q01DX001 (ip), vehicle: Klucel (hydroxypropylcellulose) (HPC)) 116 % of control; (endpoint: median survival time, dose: 16.0 mg/kg/injection, schedule: Q01DX001 (sc), vehicle: Klucel (hydroxypropylcellulose) (HPC)) 92 % of control. The T/C (endpoint: median survival time, dose: 16.0 mg/kg/injection, schedule: Q01DX009 (ip), vehicle: Klucel (hydroxypropylcellulose) (HPC)) is 112 % of control; the T/C (endpoint: median survival time, dose: 16.0 mg/kg/injection, schedule: Q01DX009 (oral), vehicle: Klucel (hydroxypropylcellulose) (HPC)) was 112 % of control; the T/C (endpoint: median survival time, dose: 16.0 mg/kg/injection, schedule: Q01DX009 (sc), vehicle: Klucel (hydroxypropylcellulose) (HPC)) was 107 % of control; the T/C (endpoint: median survival time, dose: 16.0 mg/kg/injection, schedule: Q03HX008 (ip), vehicle: Klucel (hydroxypropylcellulose) (HPC)) is 122 % of control; the T/C (endpoint: median survival time, dose: 16.0 mg/kg/injection, schedule: Q04DX003 (ip), vehicle: Klucel (hydroxypropylcellulose) (HPC)) was 113 % of control; the T/C (endpoint: median survival time, dose: 16.0 mg/kg/injection, schedule: Q08DX002 (ip), vehicle: Klucel (hydroxypropylcellulose) (HPC)) is 109 % of control. In addition, the T/C (endpoint: median survival time, dose: 32.0 mg/kg/injection, schedule: Q01DX001 (ip), vehicle: Klucel (hydroxypropylcellulose) (HPC)) is 122 % of control; the T/C (endpoint: median survival time, dose: 32.0 mg/kg/injection, schedule: Q01DX001 (oral), vehicle: Klucel (hydroxypropylcellulose) (HPC)) is 100 % of control; the T/C (endpoint: median survival time, dose: 32.0 mg/kg/injection, schedule: Q01DX001 (sc), vehicle: Klucel (hydroxypropylcellulose) (HPC)) is 101 % of control; the T/C (endpoint: median survival time, dose: 32.0 mg/kg/injection, schedule: Q01DX009 (oral), vehicle: Klucel (hydroxypropylcellulose) (HPC)) is 123 % of control; the T/C (endpoint: median survival time, dose: 32.0 mg/kg/injection, schedule: Q01DX009 (sc), vehicle: Klucel (hydroxypropylcellulose) (HPC)) is 106 % of control; the T/C (endpoint: median survival time, dose: 32.0 mg/kg/injection, schedule: Q04DX003 (ip), vehicle: Klucel (hydroxypropylcellulose) (HPC)) was 114 % of control. In addition, the T/C is 114 % of control (endpoint: median survival time, dose: 32.0 mg/kg/injection, schedule: Q08DX002 (ip), vehicle: Klucel (hydroxypropylcellulose) (HPC)); 117 % of control (endpoint: median survival time, dose: 64.0 mg/kg/injection, schedule: Q01DX001 (ip), vehicle: Klucel (hydroxypropylcellulose) (HPC)); 101 % of control (endpoint: median survival time, dose: 64.0 mg/kg/injection, schedule: Q01DX001 (oral), vehicle: Klucel (hydroxypropylcellulose) (HPC)); 102 % of control (endpoint: median survival time, dose: 64.0 mg/kg/injection, schedule: Q01DX001 (sc), vehicle: Klucel (hydroxypropylcellulose) (HPC)); 124 % of control (endpoint: median survival time, dose: 64.0 mg/kg/injection, schedule: Q01DX009 (oral), vehicle: Klucel (hydroxypropylcellulose) (HPC)); 119 % of control (endpoint: median survival time, dose: 64.0 mg/kg/injection, schedule: Q08DX002 (ip), vehicle: Klucel (hydroxypropylcellulose) (HPC)). In addition, the T/C was 104 % of control (endpoint: median survival time, dose: 128.0 mg/kg/injection, schedule: Q01DX001 (oral), vehicle: Klucel (hydroxypropylcellulose) (HPC)); 105 % of control (endpoint: median survival time, dose: 128.0 mg/kg/injection, schedule: Q01DX001 (sc), vehicle: Klucel (hydroxypropylcellulose) (HPC)); 110 % of control (endpoint: median survival time, dose: 128.0 mg/kg/injection, schedule: Q08DX002 (ip), vehicle: Klucel (hydroxypropylcellulose) (HPC)); 116 % of control (endpoint: median survival time, dose: 256.0 mg/kg/injection, schedule: Q01DX001 (ip), vehicle: Klucel (hydroxypropylcellulose) (HPC)); 107 % of control (endpoint: median survival time, dose: 256.0 mg/kg/injection, schedule: Q01DX001 (oral), vehicle: Klucel (hydroxypropylcellulose) (HPC)); 104 % of control (endpoint: median survival time, dose: 256.0 mg/kg/injection, schedule: Q01DX001 (sc), vehicle: Klucel (hydroxypropylcellulose) (HPC)). Besides, the T/C (endpoint: median survival time, dose: 512.0 mg/kg/injection, schedule: Q01DX001 (oral), vehicle: Klucel (hydroxypropylcellulose) (HPC)) was 107 % of control.
